Test results as given in publication PMC3440086, “Profiling Environmental Chemicals for Activity in the Antioxidant Response Element Signaling Pathway Using a High Throughput Screening Approach” (Environmental Health Perspectives, 2012).
Entries after “also recorded” stand apart in the source; their conditions may differ. Like-named read-outs stand apart in the source and are kept apart here.

Legend:
[1] = system: Nrf2-dependent ARE transcriptional activity; assay: ARE-luc luciferase reporter gene assay in HepG2 cells (qHTS); assay type: cell-based; design: Emax: reference not given here; settings: for EC50: read-out: ARE-luc EC50
[2] = system: antioxidant response element (ARE) signaling pathway; assay: ARE-bla β-lactamase reporter gene assay in HepG2 cells (qHTS); assay type: cell-based, human; settings: for EC50: read-out: ARE-bla EC50
[3] = system: mutated ARE; assay type: cell-based
[4] = confirmation/follow-up studies, HepG2, 16 hr exposure, mean ± SD
[5] = confirmation/follow-up studies, HepG2, mean ± SD
[6] = Homo sapiens, HepG2, confirmation/follow-up studies, activation of ARE reporter as % of positive control (β-napthoflavone), read-out: ARE-bla Efficacy
[7] = Homo sapiens, confirmation/follow-up studies, HepG2, 16 hr exposure, mean ± SD
[8] = follow-up studies, up to 46 µM, listed as melphalan
[9] = primary qHTS screening, 0.59 nM to 92 µM
[10] = follow-up studies, up to 46 µM, listed as 1,10-phenanthroline monohydrate
[11] = Homo sapiens, HepG2, confirmation/follow-up studies, activation of ARE reporter as % of positive control (β-napthoflavone), read-out: ARE-luc Efficacy
[12] = confirmation/follow-up studies, […]
[13] = follow-up studies, up to 46 µM, listed as quinoline
[14] = Homo sapiens, HepG2, read-out: ARE-bla Efficacy

ClC(Cl)=C(c1ccc(Cl)cc1)c1ccc(Cl)cc1 [p,p' -DDE, Dichlorodiphenyl dichloroethylene]
ARE-luc EC50 [1, 4]: inactive | ARE-bla EC50 [2, 4]: inactive | ARE-bla mutant IC50 [3, 5]: inactive

CC(C)(c1ccc(O)cc1)c1ccc(O)cc1 [Bisphenol A]
ARE-luc EC50 [1, 4]: inactive | Emax [2, 6]: 48% | EC50 [2, 7]: 12.5 ± 5.6 µM | ARE-bla mutant IC50 [3, 5]: inactive

N[C@@H](Cc1ccc(N(CCCl)CCCl)cc1)C(=O)O [Melphalan, reference compound]
ARE-luc EC50 [1, 4]: inactive | activity in ARE-luc assay (words) ([1]; follow-up studies, up to 46 µM): inactive in all assays | activity in ARE-luc assay (words) [1, 8]: inactive across all assays | activity in ARE-bla assay (words) ([2]; follow-up studies, up to 46 µM): inactive in all assays | activity in ARE-bla assay (words) [2, 8]: inactive across all assays | activity in ARE-bla assay (words) [2, 9]: showed activity | ARE-bla mutant IC50 [3, 5]: inactive | activity in ARE-bla-mut assay (words) ([3]; follow-up studies, up to 46 µM): inactive in all assays | activity in ARE-bla-mut assay (words) [3, 8]: inactive across all assays

O.c1cnc2c(c1)ccc1cccnc12 [1,10-Phenanthroline monohydrate]
ARE-luc EC50 [1, 4]: inactive | activity in ARE-luc assay (words) ([1]; follow-up studies, up to 46 µM): inactive in all assays | activity in ARE-luc assay (words) [1, 10]: inactive across all assays | activity in ARE-bla assay (words) ([2]; follow-up studies, up to 46 µM): inactive in all assays | activity in ARE-bla assay (words) [2, 10]: inactive across all assays | activity in ARE-bla assay (words) [2, 9]: showed activity | ARE-bla mutant IC50 [3, 5]: inactive | activity in ARE-bla-mut assay (words) ([3]; follow-up studies, up to 46 µM): inactive in all assays | activity in ARE-bla-mut assay (words) [3, 10]: inactive across all assays

NC(=S)Nc1ccccc1 [Phenylthiourea]
ARE-luc EC50 [1, 4]: inactive | ARE-bla EC50 [2, 4]: inactive | ARE-bla mutant IC50 [3, 5]: inactive

C=CC(=O)OCCOCCOCCOCCOC(=O)C=C [Tetraethylene glycol diacrylate]
Emax [1, 11]: 288% | EC50 [1, 7]: 29.2 ± 2 µM | Emax [2, 6]: 53% | EC50 [2, 7]: 9.5 ± 4.8 µM | ARE-bla mutant IC50 [3, 5]: inactive

CCN(CC)c1ccc(N)cc1 [N,N-Diethyl-p-phenylenediamine]
ARE-luc EC50 [1, 4]: inactive | EC50 [2, 4]: 18.7 ± 7.6 µM | ARE-bla Efficacy [2, 12]: 60% | ARE-bla mutant IC50 [3, 5]: inactive

C[S@@+]([O-])CCCCN=C=S [L-sulforaphane]
activity in ARE-luc assay (words) [1, 9]: active | activity in ARE-bla assay (words) [2, 9]: active

c1ccc2ncccc2c1 [Quinoline]
ARE-luc EC50 [1, 4]: inactive | activity in ARE-luc assay (words) ([1]; follow-up studies, up to 46 µM): inactive in all assays | activity in ARE-luc assay (words) [1, 13]: inactive across all assays | ARE-bla EC50 [2, 4]: inactive | activity in ARE-bla assay (words) ([2]; follow-up studies, up to 46 µM): inactive in all assays | activity in ARE-bla assay (words) [2, 13]: inactive across all assays | ARE-bla mutant IC50 [3]: inactive | activity in ARE-bla-mut assay (words) [3]: inactive across all assays; also recorded: inactive in all assays

Nc1nc2ccc([N+](=O)[O-])cc2s1 [2-Amino-6-nitrobenzothiazole]
ARE-luc EC50 [1, 4]: inactive | Emax [2, 6]: 107% | EC50 [2, 7]: 16.7 ± 9.6 µM | activity in ARE-bla assay (words) ([2]; follow-up studies, up to 46 µM): active only in the ARE-bla assay | ARE-bla mutant IC50 [3, 5]: inactive

Nc1cc(Cl)ccc1O [2-Amino-4-chlorophenol]
Emax [1, 11]: 175% | EC50 [1, 7]: 6.3 ± 2.1 µM | Emax ([2]; Homo sapiens, HepG2, confirmation/follow-up studies, […], read-out: ARE-bla Efficacy): 72% | EC50 [2, 7]: 7 ± 1.8 µM | ARE-bla mutant IC50 [3, 5]: inactive

Nc1ccccc1N [o-Phenylenediamine]
EC50 [1, 4]: 27.3 ± 4.7 µM | ARE-luc Efficacy ([1]; confirmation/follow-up studies): 151% | EC50 [2, 4]: 7.2 ± 4.1 µM | ARE-bla Efficacy [2, 12]: 72% | ARE-bla mutant IC50 [3, 5]: inactive

[Cl][In]([Cl])[Cl] [Indium trichloride]
EC50 [1, 4]: 25 µM | ARE-luc Efficacy ([1]; confirmation/follow-up studies): 312% | EC50 [2, 4]: 14.8 ± 4.9 µM | ARE-bla Efficacy [2, 12]: 92% | ARE-bla mutant IC50 [3, 5]: inactive

c1ccc2c(c1)-c1cccc3cccc-2c13 [Fluoranthene]
ARE-luc EC50 [1]: inactive | ARE-bla EC50 [2]: inactive | ARE-bla mutant IC50 [3]: inactive

CN(C)c1ccc(N=O)cc1 [N,N-Dimethyl-p-nitrosoaniline]
EC50 ([1]; Homo sapiens, HepG2, 16 h): 29.2 ± 2 µM | Emax ([1]; Homo sapiens, HepG2, read-out: ARE-luc Efficacy): 626% | EC50 ([2]; Homo sapiens, HepG2, 16 h): 9.9 ± 3.4 µM | Emax [2, 14]: 82% | ARE-bla mutant IC50 [3]: inactive

Oc1ccc(/C=C/c2cc(O)cc(O)c2)cc1 [resveratrol]
activity in ARE-luc assay (words) [1, 9]: active | activity in ARE-bla assay (words) [2, 9]: active

CC(C)Nc1ccc(Nc2ccccc2)cc1 [N-Isopropyl-N'-phenyl-p-phenylenediamine]
EC50 ([2]; Homo sapiens, HepG2, 16 h): 13.1 ± 8.9 µM | Emax [2, 14]: 71% | ARE-bla mutant IC50 [3]: inactive
